Laboratory results published in BindingDB's records for doi:10.1021/jm030418i (Abbott Laboratories, 2004).

Target: Gonadotropin-releasing hormone receptor (Rattus norvegicus) (UniProt P30969)
Experiment: In vitro binding affinity was determined against rat Luteinizing hormone-releasing hormone (LHRH) receptor cloned in CHO cells

Gonadotropin-releasing hormone receptor (Rattus norvegicus), sequence (P30969 whole entry, looked up): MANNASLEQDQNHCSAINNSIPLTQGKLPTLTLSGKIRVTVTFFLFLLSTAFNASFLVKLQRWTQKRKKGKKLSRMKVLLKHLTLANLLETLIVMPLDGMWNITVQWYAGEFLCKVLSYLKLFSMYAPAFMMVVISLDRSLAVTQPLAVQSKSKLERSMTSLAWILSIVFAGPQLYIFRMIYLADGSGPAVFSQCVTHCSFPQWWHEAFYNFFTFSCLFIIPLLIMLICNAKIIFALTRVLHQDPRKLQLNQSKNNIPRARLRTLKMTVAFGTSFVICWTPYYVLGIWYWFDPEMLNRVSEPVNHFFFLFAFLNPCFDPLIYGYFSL

Q: For `CC[C@H]1OC(=O)[C@H](C)[C@@H](OC(=O)N2CCOC2)[C@H](C)[C@@H](OC2O[C@H](C)C[C@H](N(C)C(C)C)[C@H]2O)[C@@](C)(OC)C[C@@H](C)C(=O)[C@H](C)[C@H]2N(CCc3ccc(Cl)cc3)C(=O)O[C@]12C` (stereo partly specified), which Ki is on record?
A: 51 nM
